From ChEMBL document CHEMBL1914315, “Fijimycins A-C, three antibacterial etamycin-class depsipeptides from a marine-derived Streptomyces sp” (2011) come the findings set out here.

Converted amounts (≈) assume the structure as drawn.

What all share (type): functional
In test [1] the test system is Staphylococcus aureus. Put plainly: Antimicrobial activity against methicillin-resistant Staphylococcus aureus Sanger 252. The note with it: Sanger 252, read-out: MIC100.
Test [2] relates to Staphylococcus aureus. Put plainly: Antimicrobial activity against methicillin-resistant Staphylococcus aureus UAMS 1182. The note with it: read-out: MIC100.
The subject of test [3] is Staphylococcus aureus. The experiment in a line: Antimicrobial activity against methicillin-resistant Staphylococcus aureus ATCC 33591. To be noted: read-out: MIC100.

With `CC(C)C[C@H]1NC(=O)[C@@H](NC(=O)c2ncccc2O)[C@@H](C)OC(=O)[C@@H](c2ccccc2)N(C)C(=O)[C@H](C)NC(=O)[C@H](C(C)C(C)C)N(C)C(=O)CN(C)C(=O)[C@H]2C[C@@H](O)CN2C1=O` (stereo not given in full) [FIJIMYCIN A], the MIC in the test on Staphylococcus aureus [1] is 32 µg/mL (≈ 36.4 µM); in the test on Staphylococcus aureus [2], 4 µg/mL (≈ 4.55 µM); with Staphylococcus aureus [3], 16 µg/mL (≈ 18.2 µM).

On to `CC(C)C[C@H]1NC(=O)[C@@H](NC(=O)c2ncccc2O)[C@@H](C)OC(=O)[C@H](CC(C)C)N(C)C(=O)[C@H](C)NC(=O)[C@H](C(C)C(C)C)N(C)C(=O)CN(C)C(=O)[C@H]2C[C@@H](O)CN2C1=O` (stereo not given in full) [FIJIMYCIN B], for which the MIC with Staphylococcus aureus [2] and in the test with Staphylococcus aureus [3] was over 32 µg/mL throughout.

Regarding `CC(C)C[C@H]1NC(=O)[C@@H](NC(=O)c2ncccc2O)[C@@H](C)OC(=O)[C@H](c2ccccc2)N(C)C(=O)[C@H](CO)NC(=O)[C@H](C(C)C(C)C)N(C)C(=O)CN(C)C(=O)[C@H]2C[C@@H](O)CN2C1=O` (stereo not given in full) [FIJIMYCIN C], the MIC in the test with Staphylococcus aureus [2] is 8 µg/mL (≈ 8.94 µM); with Staphylococcus aureus [3], 32 µg/mL (≈ 35.8 µM).

For the compound `CC(C)C[C@H]1NC(=O)[C@@H](NC(=O)c2ncccc2O)[C@@H](C)OC(=O)[C@H](c2ccccc2)N(C)C(=O)[C@H](C)NC(=O)[C@H](C(C)C(C)C)N(C)C(=O)CN(C)C(=O)[C@H]2C[C@@H](O)CN2C1=O` (stereo not given in full) [VIRIFOGRISEIN I], the MIC in the test on Staphylococcus aureus [1] stood at 16 µg/mL (≈ 18.2 µM); in the test with Staphylococcus aureus [2], 4 µg/mL (≈ 4.55 µM); with Staphylococcus aureus [3], 16 µg/mL (≈ 18.2 µM).
